Results: patent US6479287B1, “Method for transformation of cotton and organogenic regeneration” (Mississippi State University, priority 2000, dated 2002)

Tested on: cotton shoot initiation (cultivar Deltapine 50 hypocotyl explants)
Experiment: Dose response study: effect of aminoglycosides on cotton shoot initiation from hypocotyl explants on medium GA
Type: in vivo
Details: incorporated in medium GA, results after 1 month, kanamycin tested at 0-200 mg/l, geneticin at 0-20 mg/l
Description: Hypocotyl sections were placed horizontally on shoot initiation medium (GA). Explants were maintained for 6 weeks on this medium. Shoot primordia were visible on the acropetal ends of hypocotyl sections after 2 weeks. After 6 weeks, leaves were clearly visible. Shoot initiation has been observed in 7 commercial cultivars (Deltapine 50, Stoneville 474, Deltapine 5111, Tx 121, Suregrow 125, Fibermax 819, and Paymaster 1215) and 3 breeding lines, and the response ranged from 20-73% (percentage explants capable of initiating shoots per cultivar).
GA: semi-solid GMS plus an auxin like NAA (0.1-3.0 mg/l), a cytokinin like TDZ, or BA plus kinetin (0.1-2.5 mg/l) and 1-50 mg/l silver nitrate
The effect of the aminoglycosides kanamycin and geneticin on cotton shoot initiation were investigated. Kanamycin, at concentrations of 0.0, 50, 100, 150 and 200 mg/I, and geneticin at 0.0, 5.0, 10, 15 and 20 mg/l, were incorporated in medium GA. The experiment consisted of 3 replicate plates/treatment and 4 explants/replicate plates using the cultivar Deltapine 50. […] A geneticin concentration up to 20 mg/l was not inhibitory to shoot initiation.

Compound	concentration inhibitory to shoot initiation [mg/L]
NC[C@H]1O[C@H](O[C@H]2[C@H](O)[C@@H](O[C@H]3O[C@H](CO)[C@@H](O)[C@H](N)[C@H]3O)[C@H](N)C[C@@H]2N)[C@H](O)[C@@H](O)[C@@H]1O [kanamycin]	50
CN[C@@H]1[C@@H](O)[C@@H](O[C@@H]2[C@@H](O)[C@H](O[C@H]3O[C@H]([C@@H](C)O)[C@@H](O)[C@H](O)[C@H]3N)[C@@H](N)C[C@H]2N)OC[C@]1(C)O [geneticin]	> 20
